Test results published in patent US20230139593A1, “TREATMENT OF DISORDERS ASSOCIATED WITH OXIDATIVE STRESS AND COMPOUNDS FOR SAME” (The University of Adelaide, priority 2020, published 2023).
Structures can show the parent of a compound that is named as a salt.

What was measured:
[1] = measured, Arch Dermatol Res. 2010, 302(7), 531-8; cited from earlier work
[2] = system: spared nerve injury (SNI) model of neuropathic pain; experiment: Conditioned place preference assay (spontaneous pain) after spared nerve injury; assay type: in vivo; settings: 350 μmol/kg oral, daily for 7 days, nerve-injured mice
Description: Pathogen-free adult male and female C57BL/6J mice (8 weeks old on arrival; The Jackson Laboratory, Bar Harbor, USA) were used. Mice were housed five per cage in a light- and temperature-controlled room (12:12-h light-dark cycle, light on at 7:00 AM) with food and water available ad libitum. All procedures were approved by the MD Anderson Cancer Center Animal Care and Use Committee. SNI was performed under inhaled isoflurane anesthesia. The tibial and common peroneal nerves were isolated, tightly ligated with 6-0 silk, and transected immediately distal to the ligation. The sural nerve was left intact. Animals were monitored post-operatively until fully ambulatory prior to return to their home cage. Compounds were suspended with methylcellulose (viscosity 15 cP, 2% w/v in water;) and administered by oral gavage. For SNI anti-nociception, compounds were administered for 3 days (350 μmol/kg/day), beginning 7 days after SNI, and continuing for 3 (reflex tests) or 7 days (conditioned place preference tests). For leukopenia assessment, compounds were administered to naïve mice for 10 days (350 μmol/kg/day). Equivolume methylcellulose (2% w/v) was used as vehicle control for all compounds. An independent investigator dosed the mice in order to maintain blinding to treatment groups for the other investigators who performed the behavioral testing. […] The time spent in the light chamber was recorded. […]

[3] = system: spared nerve injury (SNI) model of neuropathic pain; experiment: Tactile allodynia (von Frey test) after spared nerve injury; assay type: in vivo, mice; settings: for tactile allodynia: 350 μmol/kg oral, daily for 3 days, SNI mice, ipsilateral paw
Description: Pathogen-free adult male and female C57BL/6J mice (8 weeks old on arrival; The Jackson Laboratory, Bar Harbor, USA) were used. Mice were housed five per cage in a light- and temperature-controlled room (12:12-h light-dark cycle, light on at 7:00 AM) with food and water available ad libitum. All procedures were approved by the MD Anderson Cancer Center Animal Care and Use Committee. SNI was performed under inhaled isoflurane anesthesia. The tibial and common peroneal nerves were isolated, tightly ligated with 6-0 silk, and transected immediately distal to the ligation. The sural nerve was left intact. Animals were monitored post-operatively until fully ambulatory prior to return to their home cage. Compounds were suspended with methylcellulose (viscosity 15 cP, 2% w/v in water;) and administered by oral gavage. For SNI anti-nociception, compounds were administered for 3 days (350 μmol/kg/day), beginning 7 days after SNI, and continuing for 3 (reflex tests) or 7 days (conditioned place preference tests). For leukopenia assessment, compounds were administered to naïve mice for 10 days (350 μmol/kg/day). Equivolume methylcellulose (2% w/v) was used as vehicle control for all compounds. An independent investigator dosed the mice in order to maintain blinding to treatment groups for the other investigators who performed the behavioral testing. Testing was conducted blind with respect to group assignment. […] Tactile allodynia was measured using the von Frey test. The 50% paw withdrawal threshold was determined using the “up-down” method. Differences between in vitro concentration-response relationships were determined by comparing the slopes of fitted functions for shared parameters. […] Mechanical allodynia was analyzed as the interpolated 50% thresholds (absolute threshold). […] Differences between treatment groups for behavior were determined using repeated measures two-way ANOVA, followed by Tukey's or […] post hoc tests. Biochemical data were analyzed by one- or two-way ANOVA, followed by Tukey's post hoc tests. Results are expressed as mean±standard deviation (SD). […]

[4] = system: spared nerve injury (SNI) model of neuropathic pain; experiment: Dynamic allodynia (paintbrush stroking) after spared nerve injury; assay type: in vivo; settings: 350 μmol/kg oral, daily for 3 days, SNI mice, ipsilateral paw
Description: Pathogen-free adult male and female C57BL/6J mice (8 weeks old on arrival; The Jackson Laboratory, Bar Harbor, USA) were used. Mice were housed five per cage in a light- and temperature-controlled room (12:12-h light-dark cycle, light on at 7:00 AM) with food and water available ad libitum. All procedures were approved by the MD Anderson Cancer Center Animal Care and Use Committee. SNI was performed under inhaled isoflurane anesthesia. The tibial and common peroneal nerves were isolated, tightly ligated with 6-0 silk, and transected immediately distal to the ligation. The sural nerve was left intact. Animals were monitored post-operatively until fully ambulatory prior to return to their home cage. […] Dynamic mechanical hypersensitivity was measured by light stroking (velocity is 2 cm/s) of the external lateral side of the injured hind paw in the direction from heel to toe with a paintbrush. The paw withdrawal response was scored according to the following criteria, score=0: walking away or occasionally very brief paw lifting […]; score=1: sustained lifting (>2 s) of the stimulated paw toward the body; score=2: a strong lateral lifting above the level of the body; score=3: flinching or licking of the affected paw. […] Differences between in vitro concentration-response relationships were determined by comparing the slopes of fitted functions for shared parameters. […]

NRF2/ARE = NRF2/ARE responsive luciferase reporter assay in HEK293 cells; assay type: cell-based; settings: 16 h; for NRF2 activity relative to MMF: 0-100 μM; for NRF2 activity in the presence of H2O2 or ONOO− compared to media control: 10 μM H2O2 or 10 μM ONOO−, 0-100 μM compound
Description: (§1) NRF2/ARE responsive luciferase reporter HEK293 cells (Signosis, Santa Clara, USA) were seeded at 1×10^5 cells/well in 48-well plates (Corning, Tewksbury, USA) in supplemented Dulbecco's Modified Eagle Medium (DMEM) containing 4.5 g/L glucose (HyClone, Pittsburgh, USA) (10% fetal bovine serum (FBS) (ThermoFisher Scientific, Waltham, USA) and 1% penicillin/streptomycin (Gibco, Waltham, USA)) and cultured overnight at 37° C., 5% CO2, in a humidified environment. The next morning, the media was replaced with supplemented DMEM (1% FBS (ThermoFisher Scientific) and 1% penicillin/streptomycin (Gibco)). Cells were then treated with a concentration range of each example of compounds described in the invention or monomethyl fumarate (0-100 μM), together with 10 μM hydrogen peroxide (H2O2) (Sigma Aldrich, St Louis, USA), 10 μM peroxynitrite (PN) (Sigma Aldrich), or supplemented media (negative control). tert-Butylhydroquinone (tBHQ; 10 μM) (Sigma-Aldrich) was used as positive control. Each condition was run in triplicate and observations confirmed over at least two additional replications.
After 16 h of incubation with examples of compounds described in the invention and ROS/RNS, cells were washed gently with 500 μL PBS (Sigma-Aldrich) and then incubated in 40 μL passive lysis buffer (Promega, Madison, USA) at room temperature. After 20 mins, 30 μL was transferred from each well to a 96-well clear-bottom, white-wall plate (Corning). Luciferase substrate (Signosis; 150 μL) was added to each well and gently mixed. Luminesence was immediately read on a Synergy HTX multi-mode microplate reader (BioTek, Winooski, USA).
Differences between in vitro concentration-response relationships were determined by comparing the slopes of fitted functions for shared parameters. Linear models were selected as the pharmacologically-relevant concentrations tested were within the linear range of the concentration-response functions. Mechanical allodynia was analyzed as the interpolated 50% thresholds (absolute threshold). One-way ANOVA was used to confirm that there were no baseline differences in absolute thresholds or dynamic scores between treatment groups. Differences between treatment groups for behavior were determined using repeated measures two-way ANOVA, followed by Tukey's or Sidaks post hoc tests. Biochemical data were analyzed by one- or two-way ANOVA, followed by Tukey's post hoc tests. Results are expressed as mean±standard deviation (SD). P<0.05 was considered statistically significant.

[5] = system: NRF2/ARE luciferase reporter HEK293 cells; experiment: Cytotoxicity in the reporter cell assay; assay type: cell-based
Description: as §1

leukocytes = experiment: Absolute leukocyte count in naive mice; assay type: in vivo; settings: 350 μmol/kg oral, daily for 10 days
Description: Compounds were suspended with methylcellulose (viscosity 15 cP, 2% w/v in water;) and administered by oral gavage. For SNI anti-nociception, compounds were administered for 3 days (350 μmol/kg/day), beginning 7 days after SNI, and continuing for 3 (reflex tests) or 7 days (conditioned place preference tests). For leukopenia assessment, compounds were administered to naïve mice for 10 days (350 μmol/kg/day). Equivolume methylcellulose (2% w/v) was used as vehicle control for all compounds. An independent investigator dosed the mice in order to maintain blinding to treatment groups for the other investigators who performed the behavioral testing.
Leukocytes from cardiac blood were stained with Turk's solution according to manufacturer instructions, and manually counted on a hemocytometer by an experimenter who was blinded to treatment conditions.

Structure (SMILES)	spontaneous pain: preference for the retigabine-paired light chamber [2]	tactile allodynia [3]	dynamic allodynia [4]	NRF2 activity relative to MMF (NRF2/ARE)	NRF2 activity in the presence of H2O2 or ONOO− compared to media control (NRF2/ARE)	also measured
COC(=O)/C=C/C(=O)O [MMF, monomethyl fumarate]	–	–	–	–	–	pKa [1]: 3.63
COC(=O)/C=C/C(=O)OCCN1C(=O)CCC1=O [diroximel fumarate, reference compound]	did not develop a preference for the retigabine-paired light chamber	–	–	–	–	–
COC(=O)/C=C/C(=O)C(=O)O [Example J, (3E)-5-methoxy-2,5-dioxopent-3-enoic acid]	–	reversed	reversed	–	–	–
COC(=O)/C=C/C(=O)C(=O)c1ccccc1 [Example D, methyl (2E)-4,5-dioxo-5-phenylpent-2-enoate]	–	–	–	at lower levels than MMF	increased NRF2 activity in the presence of H2O2 or ONOO^−	–
COC(=O)/C=C/C(=O)C(=O)OC [Example A, 1,5-dimethyl (2E)-4-oxopent-2-enedioate]	did not develop a preference for the retigabine-paired light chamber	reversed	reversed	–	increased NRF2 activity in the presence of H2O2 or ONOO^−	toxicity in the concentration range tested ([5]; 0-100 μM): no toxicity in the concentration range tested; efficacy on tactile and dynamic allodynia relative to diroximel fumarate ([3]; 350 μmol/kg oral each, 3 days, both measures): greater efficacy than diroximel fumarate; absolute leukocyte count (leukocytes): did not cause a decline in absolute leukocyte count
COC(=O)/C=C/C(=O)C(=O)NCc1ccccc1 [Example C, methyl (2E)-4-(benzylcarbamoyl)-4-oxobut-2-enoate]	–	–	–	activated NRF2 to a greater extent than MMF	did not selectively increase NRF2 activity	cytotoxic concentration [5]: above 50 μM
